In article PMC2528936, “Snake Cathelicidin from Bungarus fasciatus Is a Potent Peptide Antibiotics” (PLoS ONE, 2008):
Read-outs that look alike come from different tables or passages of the source. Where no end group is shown, it is not given here.

Columns and labels:
[1] = test system: Acinetobacter calcoaceticus; assay: microbe, parasite or virus in culture; conditions: liquid LB broth, no visible growth; mean of three independent experiments in duplicates; ND = no detectable activity
Protocol: (§1) Antimicrobial activities of cathelicidin-BF and cathelicidin-BF15 ([…]) were tested according to our previous methods [39]–[42]. […] The details were provided in the Materials and Methods S1.
(§2) Standard and clinically isolated microorganism strains were used for antimicrobial assays. Bacteria were first grown in LB (Luria-Bertani) broth to an OD600 nm of 0.8. A 10 µl aliquot of the bacteria was then taken and added to 8 ml of fresh LB broth with 0.7% agar and poured over a 90 mm Petri dish containing 25 ml of 1.5% agar in LB broth. After the top agar hardened, a 20 µl aliquot of the test sample filtered on a 0.22 µm Millipore filter was dropped onto the surface of the top agar and completely dried before being incubated overnight at 37 °C. If the sample examined had antimicrobial activity, a clear zone would be formed on the surface of the top agar representing inhibition of bacterial growth. Minimal inhibitory concentration (MIC) was determined in liquid LB medium by incubating the bacteria in LB broth with variable amounts of the sample tested. The MIC at which no visible growth occurred was recorded. In the assays of anti-fungi activity, for strains of Aspergillus terreus, A. niculans, and Chaetomium globosum, the fungal spore concentration was first counted under a microscope. The fungi with an initial concentration of 10^5 spores/ml were cultured with variable amounts of the sample tested in yeast extract-peptone-dextrose broth.

Bacillus cereus = assay: microbe, parasite or virus in culture; conditions: liquid LB broth, no visible growth; mean of three independent experiments in duplicates; ND = no detectable activity
Protocol: as §1, §2

Bacillus pumilus = assay: microbe, parasite or virus in culture; conditions: liquid LB broth, no visible growth; mean of three independent experiments in duplicates; ND = no detectable activity
Protocol: as §1, §2

Bacillus subtilis = assay: microbe, parasite or virus in culture; conditions: liquid LB broth, no visible growth; mean of three independent experiments in duplicates; ND = no detectable activity
Protocol: as §1, §2

[2] = test system: Escherichia coliATCC25922; assay: microbe, parasite or virus in culture; conditions: standard strain; liquid LB broth, no visible growth; mean of three independent experiments in duplicates; ND = no detectable activity
Protocol: as §1, §2

[3] = test system: Pseudomonas aeruginosa ATCC27853; assay: microbe, parasite or virus in culture; conditions: standard strain; liquid LB broth, no visible growth; mean of three independent experiments in duplicates; ND = no detectable activity
Protocol: as §1, §2

[4] = test system: Staphylococcus aureus ATCC2592; assay: microbe, parasite or virus in culture; conditions: standard strain; liquid LB broth, no visible growth; mean of three independent experiments in duplicates; ND = no detectable activity
Protocol: as §1, §2

Aspergillus niculans = conditions: saprophytic fungus; 10^5 spores/ml, yeast extract-peptone-dextrose broth; mean of three independent experiments in duplicates; ND = no detectable activity
Protocol: as §1, §2

[5] = test system: Aspergillus terreus GIM3.34; conditions: saprophytic fungus; 10^5 spores/ml, yeast extract-peptone-dextrose broth; mean of three independent experiments in duplicates; ND = no detectable activity
Protocol: as §1, §2

Chaetomium globosum = conditions: saprophytic fungus; 10^5 spores/ml, yeast extract-peptone-dextrose broth; mean of three independent experiments in duplicates; ND = no detectable activity
Protocol: as §1, §2

[6] = test system: E. coli 08031017 (IS, DR); conditions: clinically isolated strain, drug resistance for ampicillin and benzylpenicillin; liquid LB broth; mean of three independent experiments in duplicates; ND = no detectable activity
Protocol: as §1, §2

[7] = test system: E. coli 08032813 (IS, DR); conditions: clinically isolated strain, drug resistance for ampicillin and benzylpenicillin; liquid LB broth; mean of three independent experiments in duplicates; ND = no detectable activity
Protocol: as §1, §2

[8] = test system: E. coli 08040722 (IS, DR); conditions: clinically isolated strain, drug resistance for ampicillin and benzylpenicillin; liquid LB broth; mean of three independent experiments in duplicates; ND = no detectable activity
Protocol: as §1, §2

[9] = test system: E. coli 08040726 (IS, DR); conditions: clinically isolated strain, drug resistance for ampicillin and benzylpenicillin; liquid LB broth; mean of three independent experiments in duplicates; ND = no detectable activity
Protocol: as §1, §2

E. coli 08A852 (IS, DR) = conditions: clinically isolated strain, drug resistance for ampicillin and benzylpenicillin; liquid LB broth; mean of three independent experiments in duplicates; ND = no detectable activity
Protocol: as §1, §2

E. coli 08A866(IS, DR) = conditions: clinically isolated strain, drug resistance for ampicillin and benzylpenicillin; liquid LB broth; mean of three independent experiments in duplicates; ND = no detectable activity
Protocol: as §1, §2

E. coli = conditions: for most of E. coli (standard and clinically isolated strains)
Protocol: as §1, §2

[10] = test system: Enterococcus faecium (IS, DR); conditions: clinically isolated strain, drug resistance for ampicillin and benzylpenicillin; liquid LB broth; mean of three independent experiments in duplicates; ND = no detectable activity
Protocol: as §1, §2

[11] = test system: K. pneumoniae 08031012 (IS, DR); conditions: clinically isolated strain, drug resistance for ampicillin and benzylpenicillin; liquid LB broth; mean of three independent experiments in duplicates; ND = no detectable activity
Protocol: as §1, §2

[12] = test system: K. pneumoniae 08040202 (IS, DR); conditions: clinically isolated strain, drug resistance for ampicillin and benzylpenicillin; liquid LB broth; mean of three independent experiments in duplicates; ND = no detectable activity
Protocol: as §1, §2

[13] = test system: K. pneumoniae 08040724 (IS, DR); conditions: clinically isolated strain, drug resistance for ampicillin and benzylpenicillin; liquid LB broth; mean of three independent experiments in duplicates; ND = no detectable activity
Protocol: as §1, §2

[14] = test system: Klebsiella pneumoniae (IS, DR); conditions: clinically isolated strain, drug resistance for ampicillin and benzylpenicillin; liquid LB broth; mean of three independent experiments in duplicates; ND = no detectable activity
Protocol: as §1, §2

P. aeruginosa (IS, DR) = conditions: clinically isolated strain, drug resistance for ampicillin and benzylpenicillin; liquid LB broth; mean of three independent experiments in duplicates; ND = no detectable activity
Protocol: as §1, §2

[15] = test system: P.aeruginosa 08031014(IS, DR); conditions: clinically isolated strain, drug resistance for ampicillin and benzylpenicillin; liquid LB broth; mean of three independent experiments in duplicates; ND = no detectable activity
Protocol: as §1, §2

[16] = test system: P.aeruginosa 08031205(IS, DR); conditions: clinically isolated strain, drug resistance for ampicillin and benzylpenicillin; liquid LB broth; mean of three independent experiments in duplicates; ND = no detectable activity
Protocol: as §1, §2

Pseudomonas luteola = conditions: liquid LB broth, no visible growth; mean of three independent experiments in duplicates; ND = no detectable activity
Protocol: as §1, §2

[17] = test system: S. aureus 08031002 (IS, DR); conditions: clinically isolated strain, drug resistance for ampicillin and benzylpenicillin; liquid LB broth; mean of three independent experiments in duplicates; ND = no detectable activity
Protocol: as §1, §2

[18] = test system: S. aureus 08031013 (IS, DR); conditions: clinically isolated strain, drug resistance for ampicillin and benzylpenicillin; liquid LB broth; mean of three independent experiments in duplicates; ND = no detectable activity
Protocol: as §1, §2

[19] = test system: S. aureus 08032706 (IS, DR); conditions: clinically isolated strain, drug resistance for ampicillin and benzylpenicillin; liquid LB broth; mean of three independent experiments in duplicates; ND = no detectable activity
Protocol: as §1, §2

[20] = test system: S. aureus 08032712 (IS, DR); conditions: clinically isolated strain, drug resistance for ampicillin and benzylpenicillin; liquid LB broth; mean of three independent experiments in duplicates; ND = no detectable activity
Protocol: as §1, §2

[21] = test system: S. aureus 08032810 (IS, DR); conditions: clinically isolated strain, drug resistance for ampicillin and benzylpenicillin; liquid LB broth; mean of three independent experiments in duplicates; ND = no detectable activity
Protocol: as §1, §2

[22] = test system: S. aureus 08A865 (IS, DR); conditions: clinically isolated strain, drug resistance for ampicillin and benzylpenicillin; liquid LB broth; mean of three independent experiments in duplicates; ND = no detectable activity
Protocol: as §1, §2

[23] = test system: S. aureus 08A875 (IS, DR); conditions: clinically isolated strain, drug resistance for ampicillin and benzylpenicillin; liquid LB broth; mean of three independent experiments in duplicates; ND = no detectable activity
Protocol: as §1, §2

[24] = test system: Sacharibacillus kuerlensis; conditions: liquid LB broth, no visible growth; mean of three independent experiments in duplicates; ND = no detectable activity
Protocol: as §1, §2

Serratia marcescens MA = conditions: liquid LB broth, no visible growth; mean of three independent experiments in duplicates; ND = no detectable activity
Protocol: as §1, §2

Serratia marcescens SA = conditions: liquid LB broth, no visible growth; mean of three independent experiments in duplicates; ND = no detectable activity
Protocol: as §1, §2

[25] = test system: Sphingobacterium siyangense; conditions: liquid LB broth, no visible growth; mean of three independent experiments in duplicates; ND = no detectable activity
Protocol: as §1, §2

S. aureus ATCC25923 = assay: MIC determination; assay type: cell-based, Staphylococcus aureus; conditions: liquid LB broth, no visible growth; mean of three independent experiments in duplicates; ND = no detectable activity
[26] = test system: Salmonella typhi (IS, DR); assay: MIC determination; assay type: cell-based; conditions: clinically isolated strain, drug resistance for ampicillin and benzylpenicillin; liquid LB broth; mean of three independent experiments in duplicates; ND = no detectable activity
[27] = test system: human liver tumor cell (HepG2); conditions: up to 400 µg/ml, data not shown
Protocol: (§3) Cytotoxicity and serum stability were measured according the methods described by Mygind et al. The details were provided in the Materials and Methods S1.
(§4) Hemolysis assays were undertaken using human red blood cells in liquid medium as our previous reoprts. Serial dilutions of the peptide were used, and after incubation at 37 °C for 30 min, the cells were centrifuged and the absorbance in the supernatant was measured at 540 nm. Maximum hemolysis was determined by adding 1% Triton X-100 to a sample of cells. Cytotoxicity was measured according the methods described by Mygind et al, using mouse macrophage (RAW264.7) and tumor cell (HepG2). Serum stability was checked by incubating 100 µg/ml cathelicidin-BF with 90% fresh normal human serum at 37 °C for 0, 1, 2, 3, 6, and 24 hours. Residual antimicrobial activities were measured by performing radial diffusion assays with E. coli 08A866 as described by Mygind et al.

[28] = test system: mouse macrophage (RAW264.7); conditions: up to 400 µg/ml, data not shown
Protocol: as §3, §4

[29] = Serum stability, residual antimicrobial activity; assay type: in vitro ADME; conditions: 100 µg/ml peptide, 90% fresh normal human serum, 37°C, 0-24 hours; residual activity against E. coli 08A866 by radial diffusion assay
Protocol: For cathelicidin-BF, antimicrobial activities against E. coli 08A866 could not be detected after 3 h-incubation, while cathelicidin-BF15 could keep its antimicrobial activity up to 10 h in 90% fresh normal human serum.

KFFRKLKKSVKKRAKEFFKKPRVIGVSIPF [cathelicidin-BF]
MIC [1]: 2.3 µg/mL
MIC (Bacillus cereus): 1.2 µg/mL
MIC (Bacillus pumilus): 9.4 µg/mL
MIC (Bacillus subtilis): 9.4 µg/mL
MIC [2]: 2.3 µg/mL
MIC [3]: 1.2 µg/mL
MIC [4]: 4.7 µg/mL
MIC (Aspergillus niculans): 18.7 µg/mL
MIC [5]: 18.7 µg/mL
MIC (Chaetomium globosum): 37.5 µg/mL
MIC [6]: 2.3 µg/mL
MIC [7]: 2.3 µg/mL
MIC [8]: 0.6 µg/mL
MIC [9]: 0.6 µg/mL
MIC (E. coli 08A852 (IS, DR)): 1.2 µg/mL
MIC (E. coli 08A866(IS, DR)): 0.6 µg/mL
MIC (E. coli): lower than 2.3 µg/ml
MIC [10]: 150 µg/mL
MIC [11]: 9.4 µg/mL
MIC [12]: 0.6 µg/mL
MIC [13]: 0.3 µg/mL
MIC [14]: 4.7 µg/mL
MIC (P. aeruginosa (IS, DR)): 2.3 µg/mL
MIC [15]: 18.7 µg/mL
MIC [16]: 9.4 µg/mL
MIC (Pseudomonas luteola): 1.2 µg/mL
MIC [17]: >100 µg/mL
MIC [18]: >100 µg/mL
MIC [19]: >100 µg/mL
MIC [20]: >100 µg/mL
MIC [21]: >100 µg/mL
MIC [22]: >400 µg/mL
MIC [23]: 75 µg/mL
MIC [24]: 4.7 µg/mL
MIC (Serratia marcescens MA): >400 µg/mL
MIC (Serratia marcescens SA): >400 µg/mL
MIC [25]: 9.4 µg/mL
MIC (S. aureus ATCC25923): >400 µg/mL
MIC [26]: 1.2 µg/mL
cytotoxicity [27]: neither cytotoxic
cytotoxicity ([27]; listed as Cathelicidin-BF): No hemolytic and cytotoxic activity
cytotoxicity [28]: neither cytotoxic
cytotoxicity ([28]; listed as Cathelicidin-BF): No hemolytic and cytotoxic activity
incubation time after which antimicrobial activities could not be detected [29]: 3 h
